“Also recorded” adds a separate entry of the source.
Experiments:
[1] = tested on: NL20 (immortalized, non-tumor line, pulmonary epithelium); experiment: Cytotoxicity test (Cell Titer, 5 days), non-tumor line; type: cell-based, human
Method: (§1) Extracts (aqueous, ethyl, acidic) were obtained from 9 macrofungi species collected by INBio in the Costa Rican rainforests. All of them were subjected to a cytotoxicity test with two human cell lines: A549 (lung adenocarcinoma) and NL20 (immortalized, non-tumor line, obtained from the pulmonary epithelium). Cells were plated in 96-well plates at densities of 2,000 (A549) or 10,000 (NL20) cells per well. Once the cells were stuck to the bottom, serial concentrations of each extract were added and incubated at 37° C. for 5 days under a humidified atmosphere (85% relative humidity) and containing 5% CO2. Eight repeats (wells) were studied for each concentration. At the end of the incubation process, 20 μl of Cell Titer (Promega) were added per well and left for 4 h to allow the formation of the colored formazan salts. Colorimetric quantification was performed with a plate reader (POLARstar Omega) using a wavelength of 490 nm, following already published protocols (Coderch C, Diaz de C M, Zapico J M, Pelaez R, Larrayoz I M, Ramos A, et al. In silico identification and in vivo characterization of small molecule therapeutic hypothermia mimetics. Bioorg Med Chem 2017; 25:6597-604). […]

[2] = tested on: A549 (lung adenocarcinoma); experiment: Cytotoxicity test (Cell Titer, 5 days), tumor line; type: cell-based, human
Method: as §1

[3] = tested on: actin cytoskeleton of NL20 cells; experiment: Modulation of the actin cytoskeleton (Bodipy-falacidine staining, confocal), non-tumor cells; type: cell-based, human; settings: 0.03 mg/ml, 24-hour treatment
From the text: (§2) Many antitumor substances exert their effects by modulating the cytoskeleton of tumor cells, either acting on microtubules or on actin filaments (Zhang S, Menche D, Zahler S, Vollmer A M, Liebl J, Forster F. In vitro anti-cancer effects of the actin-binding natural compound rhizopodin. Pharmazie 2015; 70:610-5.). To check whether compound TG10 has a similar mechanism of action as other antitumor drugs, tumor cells (A549) and non-tumor cells (NL20) were subjected to a 24-hour treatment with 0.03 mg/ml TG10. At the end of this time, the cells were fixed with 10% formaldehyde for 10 min, permeabilized with 0.1% Triton X-100 for 10 min and exposed to 1: 200 Bodipy-falacidine and 1: 1000 DAPI (Molecular Probes) for 1 h. The images were obtained with a confocal laser microscope (TCS SP5, Leica).

A549 xenograft tumors = experiment: Human lung cancer xenografts in immunosuppressed mice; type: in vivo, mice (NOD scid gamma)
Method: In this case, 20 male mice of the NOD scid gamma strain (NSG, Stock No. 005557, The Jackson Laboratory) were used. All of them were injected subcutaneously with 10 million A549 cells and left for 2 weeks until the tumors became measurable. Two groups of 10 mice each were randomized and marked as control group (diamonds) and TG10-treated group (squares). From this point, intratumor injections with 100 μl of PBS (control group) or 0.1 mg/ml of TG10 in PBS (treated group) were applied 3 times per week. Before each injection, tumor volumes were measured with a caliper. The mice were euthanized when the tumors reached a size incompatible with animal welfare.

[4] = tested on: actin cytoskeleton of A549 cells; experiment: Modulation of the actin cytoskeleton (Bodipy-falacidine staining, confocal), tumor cells; type: cell-based, human; settings: 0.03 mg/ml, 24-hour treatment
From the text: as §2

Row | Molecule | Toxicity to normal cells (NL20) [1] | Antitumor activity against A549 (toxicity test of synthesized TGs) [2] | Effect on actin fibers of NL20 cells [3] | Tumor growth versus control (in words) (A549 xenograft tumors; intratumor 0.1 mg/ml in PBS, 3 times per week, FIG. 5) | Average tumor volume at the end of the experiment (A549 xenograft tumors; intratumor 100 μl of 0.1 mg/ml in PBS, 3 times per week from day 15, end day 48, control 2900 mm^3, p<0.05) [mm^3] | Effect on actin fibers of A549 cells [4]
1 | 2S-TG (C18:2, 9z, 12z; C16:0; C18:1, 9z) [TG9] | no effect on cells | no effect on cells |  |  |  | 
2 | CCCCC/C=C\C/C=C\CCCCCCCC(=O)OC[C@@H](COC(=O)CCCCCCC/C=C\CCCCCCCC)OC(=O)CCCCCCCCCCCCCCC [TG10, 2R-TG (C18:2, 9z, 12z; C16:0; C18:1, 9z)] | not toxic to normal cells | exhibited antitumor activity; also recorded: TG10 (active) | maintained the filamentous structure of actin | continued to grow, but at a slower rate | 1600 | completely lost the polymerized actin fibers

From patent US20230181514A1, “NEW TRIGLYCERIDE OBTAINED FROM A MACROCYBE TITANS EXTRACT, CLINICAL APPLICATIONS AND PRODUCTION METHOD” (BIO TECH STARE GLOBAL S.R.L., priority 2020, published 2023)
